The subject of the test is PC-3. The test can be described thus: Antitumor activity against human PC-3 cells xenografted in BALB/C nude mice assessed as decrease in tumor volume at 25 to 50 mg/kg, IG administered for 25 days. Format: functional, organism-based. The settings on record: dose 25-50 mg/kg, time 25.0 day. Background: A xenograft is tissue or cells of one species grown in another, often human tumour cells in immunodeficient mice.

Calls of active or inactive are those of the source. The calls are words filed in the database; no cut-off is given here.

One compound from ChEMBL document CHEMBL5346927, “Discovery of a novel 1H-pyrazole- [3,4-b] pyridine-based lysine demethylase 5B inhibitor with potential anti-prostate cancer activity that perturbs the phosphoinositide 3-kinase/AKT pathway” (Eur J Med Chem, 2023) can be followed below.

As for `CN1CCN(CCNC(=O)c2cc(-c3ccc4ccccc4c3)nc3c2cnn3-c2ccccc2)CC1`, the result was Active.
